In patent publication US5523303A, “Trisubstituted cycloalkane derivatives and process for the preparation thereof” (Egis Gyogyszergyar Rt., priority 1993, dated 1996):
Where two headings read alike, the source gives them in different places.

How the values were obtained:
[1] = system: beta-adrenergic; details: prior art; cited from earlier work
[2] = system: gastric-acid-secretion; test: Gastric-acid-secretion inhibition on rats (method of Shay et al.); format: in vivo; details: Rattus norvegicus, po, read-out: Acid-secretion inhibition, ED50
Method: 2. […] The liberated gastric acid content was determined by titration 4 hours after the ligature of the duodenum.

[3] = system: erosion of the stomach wall; test: Cytoprotective effect: inhibition of ethanol-induced erosion of the stomach wall on rats (method of Robert); format: in vivo; details: for ED50: Rattus norvegicus, po; for Ratio of acid-secretion inhibition and erosion inhibition: ratio of the ED50 values
Method: 3. The cytoprotective effect was determined on rats according to the method of Robert [Robert, A.: Cytoprotection by prostaglandins. […] Rats weighing 200 to 250 g were used as test animals. 1 cm^3 of abs. ethanol was introduced to the stomach to produce an erosion of the stomach wall. The length and frequency of the lesions (erosion index and frequency) were measured and the percentage inhibition of lesion formation compared with vehicle-treated animals was calculated.

[4] = target: T1, H^+ K^+ -ATP-ase (Sus scrofa, UniProt P19156); test: H+/K+-ATP-ase inhibition on partially purified pig's microsome specimen (method of Rabon and Sachs); format: biochemical
T1 construct: on partially purified pig's microsome specimen; from tissue; host or cells: pig stomach, partially purified microsomes
T1 sequence (P19156 2-1034 limits assumed): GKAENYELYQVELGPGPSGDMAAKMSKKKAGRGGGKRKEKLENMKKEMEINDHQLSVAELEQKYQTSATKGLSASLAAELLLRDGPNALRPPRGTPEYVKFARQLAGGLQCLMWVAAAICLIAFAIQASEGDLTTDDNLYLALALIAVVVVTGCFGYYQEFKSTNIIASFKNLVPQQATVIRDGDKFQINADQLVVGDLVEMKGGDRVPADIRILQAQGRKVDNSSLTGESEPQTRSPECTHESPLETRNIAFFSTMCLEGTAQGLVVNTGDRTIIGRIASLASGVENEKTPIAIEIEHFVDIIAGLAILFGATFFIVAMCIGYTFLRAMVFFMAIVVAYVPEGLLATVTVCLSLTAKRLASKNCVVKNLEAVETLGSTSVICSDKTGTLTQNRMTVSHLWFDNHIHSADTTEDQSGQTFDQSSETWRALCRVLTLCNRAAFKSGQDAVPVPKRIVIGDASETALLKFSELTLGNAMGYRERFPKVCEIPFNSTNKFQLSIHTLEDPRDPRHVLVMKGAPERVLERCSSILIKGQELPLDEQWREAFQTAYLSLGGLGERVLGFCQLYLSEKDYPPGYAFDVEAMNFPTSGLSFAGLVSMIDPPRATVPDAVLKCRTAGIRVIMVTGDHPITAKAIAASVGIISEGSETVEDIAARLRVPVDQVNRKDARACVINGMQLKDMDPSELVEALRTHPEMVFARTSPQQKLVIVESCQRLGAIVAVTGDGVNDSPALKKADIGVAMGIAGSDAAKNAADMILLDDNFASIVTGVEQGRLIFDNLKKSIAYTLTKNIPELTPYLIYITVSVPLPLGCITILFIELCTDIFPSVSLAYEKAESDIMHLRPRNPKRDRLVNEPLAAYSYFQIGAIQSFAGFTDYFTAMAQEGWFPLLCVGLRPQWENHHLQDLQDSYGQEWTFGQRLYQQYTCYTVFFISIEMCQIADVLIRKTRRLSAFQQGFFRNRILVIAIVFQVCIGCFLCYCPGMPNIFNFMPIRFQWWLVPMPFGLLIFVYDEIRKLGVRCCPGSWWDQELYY
T1 sequence (P18434 whole entry partner): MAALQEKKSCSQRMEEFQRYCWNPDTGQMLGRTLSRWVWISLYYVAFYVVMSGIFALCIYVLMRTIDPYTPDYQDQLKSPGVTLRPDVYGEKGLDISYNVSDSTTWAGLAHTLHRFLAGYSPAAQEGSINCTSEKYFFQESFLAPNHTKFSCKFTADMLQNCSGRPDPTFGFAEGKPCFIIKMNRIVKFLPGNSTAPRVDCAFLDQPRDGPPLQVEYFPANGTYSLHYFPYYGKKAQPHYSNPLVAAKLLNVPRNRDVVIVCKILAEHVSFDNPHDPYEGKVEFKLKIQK
Method: 1. H^+ /K^+ -ATP-ase inhibition on pig'stomach. The test was carried out according to the method of Rabon and Sachs [E. C. Rabon, W. B. I. and G. Sachs: Preparation of gastric H^+ /K^+ -ATP-ase. Methods in Enzymology, 157, 649-651 (1988)]. The activity of the prepared enzyme was measured both in the presence and in the absence of K^+ ions. The difference in the liberation of phosphorus representing the activity of the enzyme was measured.

[5] = Acute toxicity on mice (method of Lichtfield and Wilcoxon), LD50; details: mouse, in vivo, ip, 14 days observation
[6] = as above; details: mouse, in vivo, po, 14 days observation
Method: The test was carried out according to the method of Lichtfield and Wilcoxon [Lichtfield, J. T. and Wilcoxon, F. W.: J. Pharmacol. Exp. Ther., 96, 99 (1949)] by using white mice belonging to the CFLP strain and weighing 10 to 22 g, 10 animals per dose. The test compounds were administered orally in a volume of 20 cm3 /kg.

[7] = system: lipid level; details: prior art; cited from earlier work
[8] = prior art; cited from earlier work
[9] = rats, p.o., 4 hours after ligature

Molecule	ED50 [2, 9]	ED50 ([3]; abs. ethanol)	Ratio of acid-secretion inhibition and erosion inhibition ([3]; p.o.)	IC50 [4]	LD50 at 336 h [5]	LD50 at 336 h [6]	further results
CC(C)(C)NCC(O)CON=C1c2ccccc2-c2ccccc21 (stereo not drawn) [IPS-339]	–	–	–	–	–	–	beta-adrenergic blocking activity [1]: exhibit beta-adrenergic blocking activity
COc1ccc2[nH]c([S+]([O-])Cc3ncc(C)c(OC)c3C)nc2c1 (stereo not drawn) [Omeprazole, reference compound]	3.9 mg/kg	4.5 mg/kg	0.9	–	–	–	–
CCN(CC)CCO/N=C1/C(=C/c2ccc(Cl)c(Cl)c2)CCCC1C (racemic) [Example 41, (R,S)-6-(E)-(3,4-Dichlorophenylmethylene)-2-methyl-1-(E)-[2-(diethylamino)-ethoxyimino]-cyclohexane]	–	–	–	17 µM	100 to 300 mg/kg	> 1000 mg/kg	–
CC(CO/N=C1/C(=C/c2ccc(F)cc2)CCCC1C)CN(C)C (racemic) [Example 9, (R,S)-6-(E)-(4-Fluorophenylmethylene)-2-methyl-1-(E)-[3-(dimethylamino)-2-methylpropoxyimino]-cyclohexane]	30 to 120 mg/kg	1.2 mg/kg	25-100	> 30 µM	~300 mg/kg	600 mg/kg	–
CN/C(=N/CCSCc1nc[nH]c1C)NC#N [Cimetidine, reference compound]	–	100 to 200 mg/kg	0.3-0.6	–	–	–	ED50 ([2]; 4 h): 59.1 mg/kg
CCCC1CCCCC(=C\c2ccc(Cl)cc2)/C1=N/OCCN(CC)CC (racemic) [Example 40, (R,S)-7-(E)-(4-Chlorophenylmethylene)-2-propyl-1-(E)-[2-(diethylamino)-ethoxyimino]-cycloheptane]	52.9 mg/kg	2.6 mg/kg	20	7 µM	100 to 300 mg/kg	> 1000 mg/kg	–
OC(CON=Cc1ccc(Cl)cc1)CN1CCN(c2ccccc2Cl)CC1 (stereo not drawn) [Peraclopon]	–	–	–	–	–	–	lipid level lowering [7]: lipid level lowering agent
CCCCCC1CCCC(=C\c2ccc(F)cc2)/C1=N/OCCN1CCN(Cc2ccccc2)CC1 (racemic) [Example 31, (R,S)-6-(E)-(4-Fluorophenylmethylene)-2-pentyl-1-(E)-[2-(4-phenylmethyl-1-piperazinyl)-ethoxyimino]-cyclohexane]	200 mg/kg	3.9 mg/kg	50	> 30 µM	> 300 mg/kg	> 1000 mg/kg	–
CN1CCN(CC(=O)N2c3ccccc3C(=O)Nc3cccnc32)CC1 [Pirenzepine, reference compound]	7.9 mg/kg	18.6 mg/kg	0.4	–	–	–	–
CC(=NOCC(O)CNC(C)(C)C)C1CC1 (stereo not drawn) [Falintolol]	–	–	–	–	–	–	beta-adrenergic blocking activity [1]: exhibit beta-adrenergic blocking activity
Sucralfate [reference compound]	–	–	–	–	–	–	Ethanol erosion ED50 ([3]; p.o., abs. ethanol): 69 mg/kg
CCCCCCCC1CCCC(=C\c2ccc(F)cc2)/C1=N/OCCN(C)C (racemic) [Example 35, (R,S)-6-(E)-(4-Fluorophenylmethylene)-2-heptyl-1-(E)-[2-(dimethylamino)-ethoxyimino]-cyclohexane]	< 200 mg/kg	2.9 mg/kg	≤ 70	–	100 to 300 mg/kg	> 1000 mg/kg	–
COc1cccc(C=NOCC(O)CN2CCN(c3ccccc3OC)CC2)c1 (stereo not drawn) [Peradoxime]	–	–	–	–	–	–	hypotensive effect [8]: has a hypotensive effect
CCCCCCC1CCCC(=C\c2ccccc2OC)/C1=N/OCCN(CC)CC (racemic) [Example 34, (R,S)-6-(E)-(2-Methoxyphenylmethylene)-2-hexyl-1-(E)-[2-(diethylamino)-ethoxyimino]-cyclohexane]	103 mg/kg	1.4 mg/kg	73.4	5 µM	88 mg/kg	~1000 mg/kg	–
CCCC1CCCCC(=C\c2ccc(Cl)cc2)/C1=N/OCC(O)CN1CCCC1 (racemic) [Example 44, (R,S)-2-Propyl-7-(E)-(4-chlorophenylmethylene)-1-(E)-[2-hydroxy-3-(N-pyrrolidinylpropoxyimino)]-cycloheptane]	50 to 200 mg/kg	1.6 mg/kg	–	10 µM	100 to 300 mg/kg	> 1000 mg/kg	–
